Experimental data published in patent EP2423181A1, “Multitarget substituted biphenyl diol derivatives” (PROUS INSTITUTE FOR BIOMEDICAL RESEARCH S.A., priority 2010, dated 2012).
pIC50: −log10 of the molar value. Counter-ions that a name gives are not always drawn. Like-named read-outs stand apart in the source and are kept apart here.

Experiments:
mice = assay: Formalin test (antinociceptive activity); type: in vivo; details: for Early Response / Late Response: formalin test, dose 10-30 mg/Kg i.p.; for Early Response: early response 0-5 min; for Late Response: late response 20-30 min
Description: The chemical irritant formalin test is used as a chronic pain model in animals. The s.c. administration of formalin to the paw of a mouse produces a biphasic nociceptive behavioral response, an early response (0-5 min after injection) and a late response (20-30 min after injection) (Hunskaar, S., Fasmer, O.B., Hole, K. Formalin test in mice, a useful technique for evaluating mild analgesics. J Neurosci Methods, 1985 ;14(1):69-76).
Aspirine and paracetamol are included as external active references in early and late response. Table 12. Early and late response inhibition in the formalin test.

tumor brain U-87 MG = assay: Tumor cell proliferation assay (alamarBlue); type: cell-based; details: Homo sapiens; tumor brain U-87 MG; read-out: IC50
Description: (§1) Changes in cell proliferation were detected based on the ability of viable cells to cause alamarBlue® to change its oxidized (non-fluorescent, blue) to a reduced (fluorescent, red) form. The alamarBlue® reaction allows the quantification of cell proliferation and examination of the metabolic activity of viable cells. Test substances were examined for activity on the proliferation of human or murine tumor cell lines at assay concentrations from 0.01 to 100 µM.

tumor breast MDA-MB-231 = assay: Tumor cell proliferation assay (alamarBlue); type: cell-based; details: Homo sapiens
Description: as §1

tumor lung A549 = assay: Tumor cell proliferation assay (alamarBlue); type: cell-based; details: Homo sapiens
Description: as §1

tumor ovary OVCAR-3 = assay: Tumor cell proliferation assay (alamarBlue); type: cell-based; details: Homo sapiens; tumor ovary OVCAR-3; read-out: IC50
Description: as §1

tumor leukaemia K562 = assay: Tumor cell proliferation assay (alamarBlue); type: cell-based; details: Homo sapiens
Description: as §1

tumor breast MCF-7 = assay: Tumor cell proliferation assay (alamarBlue); type: cell-based; details: Homo sapiens, MCF7
Description: as §1

tumor liver Hep 3B = assay: Tumor cell proliferation assay (alamarBlue); type: cell-based; details: Homo sapiens, Hep3B
Description: as §1

tumor liver HepG2 = assay: Tumor cell proliferation assay (alamarBlue); type: cell-based; details: Homo sapiens
Description: as §1

tumor prostate LNCaP-FGC = assay: Tumor cell proliferation assay (alamarBlue); type: cell-based; details: Homo sapiens
Description: as §1

tumor breast T-47D = assay: Tumor cell proliferation assay (alamarBlue); type: cell-based; details: Homo sapiens, T47D
Description: as §1

tumor colon HCT-116 = assay: Tumor cell proliferation assay (alamarBlue); type: cell-based; details: Homo sapiens; tumor colon HCT-116; read-out: IC50
Description: as §1

[1] = log D octanol/water distribution coefficient; type: physicochemical
Text: Lipophilicity has been correlated to various drug properties, affecting permeability, absorption, distribution, plasma protein binding, metabolism, elimination, and toxicity. In contrast to honokiol and magnolol, compounds claimed in the invention, and more particularly those wherein the nitrogen atom in the group -O-CH(phenyl)-(CH2)p-NH-R^3 is protonated and the compound further comprises a pharmaceutically acceptable counter-anion present an optimal log Doctanol/water (range 0-3), indicating good aqueous solubility, permeability, oral absorption, and blood-brain barrier penetration. Experimental studies in murine models have confirmed the results.
Absorption, distribution and metabolism studies in vitro with selected examples were performed in order to determine pharmacokinetic parameters such as permeability (or absorption constant), intrinsic clearance (or metabolic clearance), and bioavailability. Physicochemical properties such as water solubility, pKa, log P, and log Doctanol/water, and in vitro experimental studies such as permeability in Caco2 cells, and protein binding in the mouse, stability in murine microsomes, chemical stability at different pH and stability in plasma were evaluated for the pharmacokinetic prediction in mice.

[2] = target: T1, Gonadotrophin-releasing hormone receptors (GnRH, LH-RH)R (Homo sapiens, UniProt P30968); assay: GnRH radioligand binding assay; details: read-out: % Inhibition at 10 µM
T1 construct: expressed in transfected cells; host or cells: Chem-1 cells
T1 sequence (P30968 1-328): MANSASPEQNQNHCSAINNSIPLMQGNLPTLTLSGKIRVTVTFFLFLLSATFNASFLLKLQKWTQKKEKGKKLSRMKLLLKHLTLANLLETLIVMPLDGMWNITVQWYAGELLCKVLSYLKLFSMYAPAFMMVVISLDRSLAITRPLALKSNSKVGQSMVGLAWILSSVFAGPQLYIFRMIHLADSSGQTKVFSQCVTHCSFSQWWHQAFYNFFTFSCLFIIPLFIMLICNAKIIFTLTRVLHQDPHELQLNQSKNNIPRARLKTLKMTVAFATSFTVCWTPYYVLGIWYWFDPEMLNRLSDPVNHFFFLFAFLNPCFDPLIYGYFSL
Text: Gonadotrophin-releasing hormone receptors (GnRH, LH-RH)R are a family of G protein-coupled receptors for GnRH, which promotes the secretion of luteinizing hormone (LH) and follicle-stimulating hormone (FSH). The activation of this receptor promotes, through estrogen receptors (ER) located in the cytosol, an increase in gene transcription and activation of tumor suppressor genes, DNA repair, cell division and cell proliferation. GnRH agonists are useful in breast, prostate and ovarian cancer, endometriosis, melanoma, rheumatoid arthritis and Alzheimer's disease. Table 17 presents the results from radioligand binding studies for GnRH for selected compounds using human recombinant Chem-1 cells (Halmos G, Schally AV, Pinski J, Vadillo-Buenfill M, Groot K. Down regulation of pituitary receptors for luteinizing hormone-releasing hormone (LH-RH) in rats by LH-RH antagonist Cetrorelix. Prco Natl Acad Sci USA 1996;93(6):2398-2402). The specific and non specific ligands used were [^125l] [D-Trp^6]-LH-RH (0.05 nM) and [D-Trp^6]-LH-RH ([…]) and after 60 min of incubation at 25°C in a 50 mM HEPES, pH 7.5, 5 mM MgCl2, 1 mM CaCl2, and 0.2% BSA the activity was measured by radioligand binding. Table 17. GnRH radioligand binding assay

[3] = Maximum Tolerated Dose after acute administration; details: mouse, in vivo, ip, mice
Description: The Maximum Tolerated Dose (MTD) in mice was determined for selected compounds. The protocol of the studies was in accordance with the standard guidelines for drug development: • (htp://dtp.nci.nih.gov/branches/btb/acute tox.html). Table 10. Maximum Tolerated Doses in mice after acute i.p. administration

[4] = tumor lung A549, read-out: IC50
[5] = tumor leukaemia K562, read-out: IC50
[6] = tumor liver HepG2, read-out: IC50
[7] = tumor prostate LNCaP-FGC, read-out: IC50

Row | Structure (SMILES) | Early Response (mice) | Late Response (mice) | pIC50 (tumor brain U-87 MG) | pIC50 (tumor lung A549; [4]) | pIC50 (tumor ovary OVCAR-3) | pIC50 (tumor leukaemia K562; [5]) | pIC50 (tumor liver HepG2; [6]) | pIC50 (tumor prostate LNCaP-FGC; [7]) | pIC50 (tumor colon HCT-116) | logDoctanol/water [1] | MTD [3] [mg/kg] | further results
1 | C=CCc1ccc(O)c(-c2cc(CC=C)ccc2OC(CCNC)c2ccccc2)c1.Cl (centres unmarked) [Example 1, 5,5'-Diallyl-2'-[3-(methylamino)-1-phenylpropoxy]biphenyl-2-ol hydrochloride] | slightly active | active | 5.70 | 5.30 | 5.34 | 5.72 | 5.85 | 4.89 | 5.37 | 1.31 | 25 | antinociceptive activity in the formalin test (mice; 30 mg/kg i.p, early and late phases, potency similar to morphine 10 mg/kg i.p.): relevant antinociceptive activity; pIC50 (tumor breast MDA-MB-231; tumor breast MDA-MB-231, read-out: IC50): 5.48; pIC50 (tumor breast MCF-7; tumor breast MCF-7, read-out: IC50): 5.80; pIC50 (tumor liver Hep 3B; tumor liver Hep 3B, read-out: IC50): 5.25; pIC50 (tumor breast T-47D; tumor breast T-47D, read-out: IC50): 4.89; inhibition at 10 µM ([2]; GnRH radioligand binding, 10 µM): 50%
2 | C=CCc1ccc(O)c(-c2ccc(OC(CCNC)c3ccccc3)c(CC=C)c2)c1 (centres unmarked) [Example 5, 3',5-Diallvl-4'-13-(methylamino)-1-phenylpropoxy]biphenyl-2-ol hydrochloride] | slightly active | Active |  |  |  |  |  |  |  | 0.85 | 25 | pIC50 (tumor breast MDA-MB-231; MDA-MB-231): 5.68; pIC50 (tumor lung A549; A549): 5.92; pIC50 (tumor leukaemia K562; K562): 5.85; pIC50 (tumor breast MCF-7): 5.35; pIC50 (tumor liver Hep 3B): 5.72; pIC50 (tumor liver HepG2; HepG2): 6.00; pIC50 (tumor prostate LNCaP-FGC): 5.82; pIC50 (tumor breast T-47D): 5.80; inhibition at 10 µM [2]: 37%
3 | C=CCc1ccc(O)c(-c2ccc(O)c(CC=C)c2)c1 [Honokiol, reference compound] |  |  | 4.25 | 4.92 | 4.42 | 4.80 | 4.92 | 4.80 | 4.77 | 5.25 |  | 
